Where two headings read alike, the source gives them in different places.
Experiments:
[1] = cited from earlier work
[2] = cited from earlier work; for Extent of hepatic metabolism: ref DrugBank and Prescribers' Digital Reference database
[3] = system: primary human hepatocytes (PHH) 3D spheroids
PHH 2D sandwich cultures = details: cited from earlier work
clinical DILI in man = details: cited from earlier work
[4] = therapeutic total cmax, ref PMID
[5] = PHH 2D sandwich cultures, 100x Cmax, ref Xu 2008
[6] = clinical DILI classification in man (POS/NEG)
[7] = clinical DILI classification used in this study, Supplementary Table 2, ref Chen et al., 2011, Guo et al., 2005, O'Brien et al., 2006, Sakatis et al., 2012, Suzuki et al., 2010, Xu et al., 2008
[8] = clinical DILI classification, Supplementary Table 1, ref Chen et al., 2011, Guo et al., 2005, O'Brien et al., 2006, Sakatis et al., 2012, Suzuki et al., 2010, Xu et al., 2008
[9] = reported pattern of liver damage, Supplementary Table 2, ref literature
[10] = FDA drug labeling DILI score, ref Chen et al., 2011
[11] = clinical DILI classification, ref Xu et al. (2008)
[12] = DILI classification score, ref Suzuki et al. (2010)
[13] = FDA drug labeling DILI concern, ref Chen et al., 2011

| Structure (SMILES) | Cmax [1, 4] [nM] | Extent of hepatic metabolism [2] | Chemically defined spheroids (this study) 20x [3] | 2Dsw (Xu 2008) 100x (PHH 2D sandwich cultures; [5]) | Classified as (clinical DILI in man; in vivo) | Clinical DILI class (panel heading of Figure 4) (clinical DILI in man; in vivo) | DILI in vivo (clinical DILI in man; in vivo) | FDA (0-8) (clinical DILI in man; in vivo) | Type of DILI (clinical DILI in man; in vivo) | Xu et al. (2008) (clinical DILI in man; in vivo) | DILI in vivo (clinical DILI in man; [6]) | Classified as (clinical DILI in man; [7]) | DILI in vivo (clinical DILI in man; [8]) | Type of DILI (clinical DILI in man; [9]) | FDA (0-8) (clinical DILI in man; [10]) | further results |
| --- | --- | --- | --- | --- | --- | --- | --- | --- | --- | --- | --- | --- | --- | --- | --- | --- |
| O=C(OCC(O)CO)c1ccccc1Nc1ccnc2cc(Cl)ccc12 (centres unmarked) [Glafenine] | 1880 | Extensive | Negative | Negative | POS | Severe DILI | POS | Withdrawn | Hepatocellular injury | Positive | – | – | – | – | – | FDA (Severity) (clinical DILI in man; in vivo): most DILI concern; Sakatis et al. (2012) (clinical DILI in man; in vivo): Hepatotoxic |
| Nc1ccc(/N=N/c2ccccc2)c(N)n1 [Phenazopyridine] | 110 | Moderate | Negative | Negative | – | – | – | – | – | – | POS | POS | POS | Hepatocellular injury | – | – |
| C[C@H](CCC(=O)O)[C@H]1CC[C@H]2[C@@H]3[C@H](O)C[C@@H]4C[C@H](O)CC[C@]4(C)[C@H]3CC[C@]12C [Chenodiol] | 8000 | Extensive | Positive | Positive | – | – | – | – | – | – | POS | POS | POS | Cholestatic injury | – | – |
| NCCc1ccc(O)c(O)c1 [Dopamine] | 121 | Extensive | Negative | Negative | NEG | DILI negative | NEG | 0 | Non-hepatotoxic | Negative | – | – | – | – | – | – |
| Cc1nc2n(c(=O)c1CCN1CCC(c3noc4cc(F)ccc34)CC1)CCCC2 [Risperidone] | 80 | Extensive | Negative | Negative | POS | High DILI concern | POS | 3 | Hepatocellular injury, Cholestatic injury or Mixed hepatitis | Positive | – | – | – | – | – | first pass metabolism ([2]; ref Madden et al., 1995, El-Hage and Surguladze, 2010, Rawden et al., 2000, Villaverde et al.): extensive first pass metabolism; Guo et al. (2005) (clinical DILI in man; in vivo): 2; Suzuki et al. (2010) (clinical DILI in man; in vivo): 1 |
| Cc1cc(C2CCCCC2)n(O)c(=O)c1 [Ciclopirox] | 373 | Extensive | Negative | Negative | – | – | – | – | – | – | NEG | NEG | NEG | Non-hepatotoxic | – | – |
| Clc1ccc2c(c1)C(N1CCNCC1)=Nc1ccccc1O2 [Amoxapine] | 220 | Extensive | Negative | Negative | – | – | – | – | – | – | NEG | NEG | NEG | Non-hepatotoxic | 3 | hepatotoxicity evaluation in CD-spheroids [3]: not found to be toxic at any concentration tested; Xu et al. (2008) (clinical DILI in man; [11]): Negative; Clinical DILI classification (Figure 5) (clinical DILI in man; structural analogue pairs, Figure 5, ref Chen et al., 2011, Xu et al., 2008 and others): DILI negative |
| Cc1ncc(CO)c(CO)c1O [Pyridoxine] | 122 | Extensive | Negative | Negative | NEG | DILI negative | NEG | 0 | Non-hepatotoxic | Negative | – | – | – | – | – | O'Brien et al. (2003) (clinical DILI in man; in vivo): Non-toxic |
| NCC1(CC(=O)O)CCCCC1 [Gabapentin] | – | Minimal | Negative | – | – | – | – | – | – | – | NEG | NEG | NEG | Non-hepatotoxic | 3 | Cmax ([1]; human, in vivo): 14400 nM; 2Dsw (Xu 2008) 100x (PHH 2D sandwich cultures): Negative; Suzuki et al. (2010) (clinical DILI in man; [12]): 1; Xu et al. (2008) (clinical DILI in man; [11]): Negative |
| CCC1(c2ccc(N)cc2)CCC(=O)NC1=O (centres unmarked) [Aminoglutethimide] | 25400 | Moderate | Negative | Negative | – | – | – | – | – | – | NEG | NEG | NEG | Non-hepatotoxic | – | – |
| CC(C)NCC(O)c1ccc(O)c(O)c1 (centres unmarked) [Isoproterenol] | 2020 | Moderate | Negative | Negative | NEG | DILI negative | NEG | 0 | Non-hepatotoxic | Negative | – | – | – | – | – | O'Brien et al. (2003) (clinical DILI in man; in vivo): Non-toxic |
| O=C1NC(=O)C(c2ccccc2)(c2ccccc2)N1 [Phenytoin] | 21700 | Extensive | Negative | Positive | POS | Severe DILI | POS | 8 | Hepatocellular injury or Mixed hepatitis | Positive | – | – | – | – | – | FDA (Severity) (clinical DILI in man; in vivo): less DILI concern; Guo et al. (2005) (clinical DILI in man; in vivo): 2; Sakatis et al. (2012) (clinical DILI in man; in vivo): Hepatotoxic; Suzuki et al. (2010) (clinical DILI in man; in vivo): 2 |
| CC(C)(C)c1ccc(C(O)CCCN2CCC(C(O)(c3ccccc3)c3ccccc3)CC2)cc1 (centres unmarked) [Terfenadine] | 4.5 | Extensive | – | Negative | NEG | DILI negative | NEG | – | Non-hepatotoxic | – | – | – | – | – | – | – |
| COC(=O)C1=C(C)NC(C)=C(C(=O)OCC(C)C)C1c1ccccc1[N+](=O)[O-] (centres unmarked) [Nisoldipine] | 13 | Extensive | Negative | Negative | – | – | – | – | – | – | – | – | – | – | – | – |
| CCOC(=O)[C@H](CCc1ccccc1)N[C@@H](C)C(=O)N1Cc2ccccc2C[C@H]1C(=O)O [Quinapril] | 1200 | Moderate | Negative | Negative | – | – | – | – | – | – | POS | POS | POS | Cholestatic injury | 3 | Guo et al. (2005) (clinical DILI in man; DILI classification score, ref Guo et al. (2005)): 3; Suzuki et al. (2010) (clinical DILI in man; [12]): 1; Xu et al. (2008) (clinical DILI in man; [11]): Positive |
| CCCCNc1cc(C(=O)O)cc(S(N)(=O)=O)c1Oc1ccccc1 [Bumetanide] | 80 | Moderate | Negative | – | POS | High DILI concern | POS | 3 | – | Positive | – | – | – | – | – | – |
| CC[C@@H]1C(=O)OC[C@@H]1Cc1cncn1C [Pilocarpine] | 84 | Minimal | Negative | Negative | – | – | – | – | – | – | NEG | NEG | NEG | Non-hepatotoxic | 3 | Xu et al. (2008) (clinical DILI in man; [11]): Negative |
| Fc1ccc([C@@H]2CCNC[C@H]2COc2ccc3c(c2)OCO3)cc1 [Paroxetine] | 50 | Extensive | Negative | – | – | – | – | – | – | – | NEG | NEG | NEG | Non-hepatotoxic | 8 | Suzuki et al. (2010) (clinical DILI in man; [12]): 2; FDA (Severity) (clinical DILI in man; [13]): less DILI concern; Xu et al. (2008) (clinical DILI in man; [11]): Negative; O'Brien et al. (2003) (clinical DILI in man; clinical hepatotoxicity classification, ref O'Brien et al. (2003)): Moderately |
| CC(C)NNC(=O)c1ccncc1 [Iproniazid] | 40 | Extensive | Negative | – | – | – | – | – | – | – | POS | POS | POS | Hepatocellular injury | Withdrawn | hepatotoxicity evaluation in CD-spheroids [3]: predicted to be DILI negative; Suzuki et al. (2010) (clinical DILI in man; [12]): 3; FDA (Severity) (clinical DILI in man; [13]): most DILI concern; Sakatis et al. (2012) (clinical DILI in man; in vivo): Hepatotoxic |
